Source: ChEMBL document CHEMBL3244062, “3-Halo-5,7-dimethylpyrazolo [1,5-a]pyrimidines, a nonbenzodiazepinoid class of antianxiety agents devoid of potentiation of central nervous system depressant effects of ethanol or barbiturates” (J Med Chem, 1977)
The source made the active and inactive calls. The rule behind the calls is not given here.

How the values were obtained:
Mus musculus [1] = test: Antianxiety activity in mouse assessed as ataxia, catatonia, and alterations in motor activity and startle reflex at 50 mg/kg, ip after 30 to 120 mins; format: functional, organism-based; parameters: dose 50 mg/kg
Mus musculus [2] = test: Antianxiety activity in mouse assessed as ataxia, catatonia, and alterations in motor activity and startle reflex at 100 mg/kg, ip after 30 to 120 mins; format: functional, organism-based; parameters: dose 100 mg/kg
[3] = Acute toxicity in mouse measured following single po dose; format: organism-based; conditions: in vivo
Rattus norvegicus [4] = test: Anticonvulsant activity in ip dosed rat assessed as impairment of motor performance by forced motor activity test; format: functional
Rattus norvegicus [5] = test: Antianxiety activity in ip dosed rat assessed as punished responding by conditioned lick suppression behavioral test; format: functional; conditions: read-out: MED
[6] = Acute toxicity in mouse measured following single ip dose; format: organism-based; conditions: in vivo
Rattus norvegicus [7] = test: Anticonvulsant activity in ip dosed rat assessed as impairment of motor performance by spontaneous motor activity test; format: functional
Rattus norvegicus [8] = test: Antipsychotic activity in ip dosed rat assessed as reduction in avoidance responding by Sidman avoidance test; format: functional
Mus musculus [9] = test: […] in po dosed mouse assessed as potentiation of sodium barbital-induced loss of the righting reflex in 50% mouse; format: functional
Mus musculus [10] = test: […] in po dosed mouse assessed as potentiation of ethanol-induced loss of the righting reflex in 50% mouse; format: functional
Rattus norvegicus [11] = test: Antianxiety activity in po dosed rat assessed as punished responding by conditioned lick suppression behavioral test; format: functional; conditions: read-out: MED
Mus musculus [12] = test: Antiaggressive activity in mouse assessed as change in foot shock-induced fighting behavior at 20 mg/kg, po after 90 mins; format: functional
Mus musculus [13] = test: Antiaggressive activity in mouse assessed as change in foot shock-induced fighting behavior at 20 mg/kg, po after 30 mins; format: functional
Rhesus monkey [14] = test: Antiaggressive activity in Rhesus monkey assessed as reduction in biting, pushing or attacking the pole responses at 25 to 100 mg/mg, po after 0 to 6 hrs; format: functional, organism-based; conditions: Macaca mulatta
Rattus norvegicus [15] = test: Antiaggressive activity in Long-Evans black-hooded rat assessed as suppression of muricide behavior for 2 mins period at 80 mg/kg, po; format: functional; conditions: Long-Evans black-hood
Rattus norvegicus [16] = test: Antiaggressive activity in Long-Evans black-hooded rat assessed as suppression of muricide behavior for 2 mins period at 20 mg/kg, po; format: functional; conditions: Long-Evans black-hood
Mus musculus [17] = test: Antiaggressive activity in mouse assessed as change in foot shock-induced fighting behavior at 80 mg/kg, po after 30 mins; format: functional
Mus musculus [18] = test: Antiaggressive activity in mouse assessed as change in foot shock-induced fighting behavior at 80 mg/kg, po after 90 mins; format: functional
Rhesus monkey [19] = test: Antiaggressive activity in Rhesus monkey assessed as reduction in biting, pushing or attacking the pole responses at 2.5 to 10 mg/mg, po after 0 to 6 hrs; format: functional, organism-based; conditions: Macaca mulatta

Compound | Activity (Mus musculus [1]) | Activity (Mus musculus [2]) | other results
Cc1cc(C)n2nc(Cl)cc2n1 | Active | Active | 
c1cnc2ccnn2c1 | Active | Active | 
CC(C)c1cc(C(C)C)n2ncc(Br)c2n1 | inactive | inactive | 
Cc1cc(C)n2ncc(C#N)c2n1 | inactive | inactive | 
Cc1cc(C)n2ncc(I)c2n1 | Active | Active | LD50 [3]: > 3000 mg/kg; ED50 (Rattus norvegicus [4]): 19.8 mg/kg; minimal effective dose (Rattus norvegicus [5]): 20 mg/kg; LD50 [6]: 612 mg/kg; ED50 (Rattus norvegicus [7]): 24.9 mg/kg; ED50 (Rattus norvegicus [8]): 39.1 mg/kg; HD50 (Mus musculus [9]): 142.8 mg/kg; HD50 (Mus musculus [10]): 296.1 mg/kg; minimal effective dose (Rattus norvegicus [11]): 120 mg/kg
Cc1cn2ncc(Br)c2nc1C | inactive | inactive | 
Cc1cc(C)n2ncc(C(N)=S)c2n1 | inactive | inactive | 
Cc1cc(C)n2ncc(Cl)c2n1 | Active | Active | Activity (Mus musculus [12]): 22%; LD50 [3]: 599 mg/kg; Activity (Mus musculus [13]): -3%; ED50 (Rattus norvegicus [4]): 32.7 mg/kg; minimal effective dose (Rattus norvegicus [5]): 10 mg/kg; LD50 [6]: 369 mg/kg; ED50 (Rattus norvegicus [7]): 38.6 mg/kg; inhibition (Rhesus monkey [14]): inactive; ED50 (Rattus norvegicus [8]): 31.8 mg/kg; inhibition in vivo at 80 mg/kg (Rattus norvegicus [15]): 80%; HD50 (Mus musculus [9]): 60.9 mg/kg; HD50 (Mus musculus [10]): 391.7 mg/kg; inhibition in vivo at 20 mg/kg (Rattus norvegicus [16]): 0%; minimal effective dose (Rattus norvegicus [11]): 10 mg/kg; Activity (Mus musculus [17]): -89%; Activity (Mus musculus [18]): -57%
Cc1cc(C)n2ncc(S(=O)(=O)Cl)c2n1 | inactive | inactive | 
CCc1cc(CC)n2ncc(Br)c2n1 | Active | Active | 
Brc1cnn2cccnc12 | inactive | inactive | 
Cc1cc(C)n2nc(O)c(Br)c2n1 | inactive | inactive | 
CNC1=Nc2ccc(Cl)cc2C(c2ccccc2)=[N+]([O-])C1 [CHLORDIAZEPOXIDE] |  |  | LD50 [3]: 939 mg/kg; minimal effective dose (Rattus norvegicus [5]): 20 mg/kg; LD50 [6]: 183 mg/kg; ED50 (Rattus norvegicus [8]): 14.3 mg/kg; HD50 (Mus musculus [9]): 6.4 mg/kg; HD50 (Mus musculus [10]): 12.6 mg/kg; minimal effective dose (Rattus norvegicus [11]): 60 mg/kg
Cc1cc(C)n2ncc(S(=O)(=O)N3CCN(C)CC3)c2n1 | inactive | inactive | 
Cc1cc(C)n2ncc(/C(N)=N/O)c2n1 | inactive | inactive | 
CCc1cc(C)nc2c(Br)cnn12 | Active | Active | 
CCCc1cc(C)nc2c(Br)cnn12 | Active | Active | 
Cc1ccnc2c(Br)cnn12 | inactive | inactive | 
CCOC(=O)c1cnn2c(C)cc(C)nc12 | inactive | inactive | 
CN(C)CCCN1c2ccccc2Sc2ccc(Cl)cc21 [CHLORPROMAZINE] |  |  | ED50 (Rattus norvegicus [8]): 3.7 mg/kg
Cc1cc(C)n2nc(Br)cc2n1 | Active | Active | 
Cc1cc(C)n2ncc(N=O)c2n1 | inactive | inactive | 

Compound | Activity (Mus musculus [1]) | Activity (Mus musculus [2]) | other results
Cc1cc(C)n2ncc([N+](=O)[O-])c2n1 | inactive | inactive | 
Cc1cc(C)n2ncc(-c3ccccc3)c2n1 | inactive | inactive | 
Cc1cc(C)n2ncc(SC#N)c2n1 | inactive | inactive | 
Cc1cc(C)n2ncc(Br)c2n1 | Active | Active | Activity (Mus musculus [12]): 13%; LD50 [3]: 1350 mg/kg; Activity (Mus musculus [13]): 30%; ED50 (Rattus norvegicus [4]): 18.4 mg/kg; minimal effective dose (Rattus norvegicus [5]): 10 mg/kg; LD50 [6]: 458 mg/kg; ED50 (Rattus norvegicus [7]): 27.1 mg/kg; inhibition (Rhesus monkey [14]): inactive; ED50 (Rattus norvegicus [8]): 29.5 mg/kg; inhibition in vivo at 80 mg/kg (Rattus norvegicus [15]): 60%; HD50 (Mus musculus [9]): 61.9 mg/kg; HD50 (Mus musculus [10]): 236.8 mg/kg; inhibition in vivo at 20 mg/kg (Rattus norvegicus [16]): 0%; minimal effective dose (Rattus norvegicus [11]): 20 mg/kg; Activity (Mus musculus [17]): -46%; Activity (Mus musculus [18]): -8%
Cc1cc(C)n2ncc(N)c2n1 | inactive | inactive | 
FC(F)(F)c1cc(C(F)(F)F)n2nccc2n1 | inactive | inactive | 
Cc1cc(C)n2ncc(S)c2n1 | inactive | inactive | 
Cc1cc(C)n2ncc(C(=O)C(F)(F)F)c2n1 | inactive | inactive | 
CC(=O)Cc1cc(C)nc2ccnn12 | Active | Active | 
Cc1cc(C)n2nccc2n1 | Active | Active | LD50 [3]: 928 mg/kg; ED50 (Rattus norvegicus [4]): 65 mg/kg; minimal effective dose (Rattus norvegicus [5]): 40 mg/kg; LD50 [6]: 537 mg/kg; ED50 (Rattus norvegicus [7]): 79 mg/kg; ED50 (Rattus norvegicus [8]): 60.3 mg/kg; HD50 (Mus musculus [9]): 118.8 mg/kg; HD50 (Mus musculus [10]): 228.6 mg/kg; minimal effective dose (Rattus norvegicus [11]): 60 mg/kg
Cc1cc(C)n2ncc(F)c2n1 | Active | Active | minimal effective dose (Rattus norvegicus [5]): 40 mg/kg; ED50 (Rattus norvegicus [8]): 40.2 mg/kg; minimal effective dose (Rattus norvegicus [11]): 80 mg/kg
CN1C(=O)CN=C(c2ccccc2)c2cc(Cl)ccc21 [DIAZEPAM] |  |  | ED50 (Rattus norvegicus [4]): 5.6 mg/kg; minimal effective dose (Rattus norvegicus [5]): 20 mg/kg; ED50 (Rattus norvegicus [7]): 9.2 mg/kg; ED50 (Rattus norvegicus [8]): 11.3 mg/kg; HD50 (Mus musculus [9]): 0.5 mg/kg; HD50 (Mus musculus [10]): 1.5 mg/kg; minimal effective dose (Rattus norvegicus [11]): 20 mg/kg; inhibition (Rhesus monkey [19]): inactive
Cc1cc(C)n2ncc(C)c2n1 | Active | Active | 
Cc1cc(C)n2ncc(C(N)=O)c2n1 | Active | Active | 
Cc1cn2nccc2nc1C | inactive | inactive | 
Cc1cc(C)n2[nH]c(=O)cc2n1 | inactive | inactive | 
CCCCc1cc(CCCC)n2ncc(Br)c2n1 | inactive | inactive | 
Cc1ccn2nccc2n1 | Active | Active | 
Cc1ccnc2ccnn12 | inactive | inactive | 
Cc1cc(C)n2ncc(S(N)(=O)=O)c2n1 | inactive | inactive | 
Cc1cnc2ccnn2c1 | inactive | inactive | 
